Results from patent publication EP2119770B1, “Production of alpha-oxyfunctionalized carbonyl compounds” (priority 2008, dated 2009).

Legend:
Assay type in all cases: biochemical
Gox0644 [1] = target: T1, Gox0644 (Gluconobacter oxydans, UniProt Q5FT75); assay: Enzyme activity assay (rate of NAD(P)H decrease at 340 nm), Gox0644; conditions: 10 mM substrate; for Specific Activity: Tab. 4, Gox0644, cofactor NADPH, pH 7.0, 30 °C; for Activity: Table 3, Gox0644, K-phosphate buffer pH 7.0, 0.05 mM NAD(P)H, 30 °C
Experimental: (§1) Reactions were induced by addition of enzyme or substrate. One unit of enzyme activity was defined as the amount of enzyme catalyzing the conversion of 1 µmol of pyridine nucleotide per min at 30 °C.
as §1
For each enzyme (Gox0313, Gox0502, Gox0644, Gox0646, Gox1615, Gox2107, and Gox2684 respectively), fresh enzyme preparations were used to validate the substrate spectrum and the kinetic activity. […] Reactions were induced by addition of enzyme or substrate. One unit of enzyme activity was defined as the amount of enzyme catalyzing the conversion of 1 µmol of pyridine nucleotide per min at 30 °C. […] Table 3: Summary of enzymatic activities with α-diketones, α-ketoaldehydes and /or α-ketoesters

Gox2107 = Gox2107 (Gluconobacter oxydans, UniProt Q5FP53); assay: Enzyme activity assay (rate of NAD(P)H decrease at 340 nm), Gox2107; conditions: 10 mM substrate; for Specific Activity: Tab. 7, Gox2107, cofactor NADPH, pH 7.0, 30 °C
Procedure, shortened: (§2)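 Purified enzymes assayed at 30 °C in 40 mM potassium phosphate pH 7.0 with 10 mM substrate and NAD(P)H (0.025 mM, or 0.05 mM in the standard mixture), started by adding enzyme or substrate. Activity followed as the rate of NAD(P)H decrease at 340 nm; one unit = 1 µmol pyridine nucleotide converted per min; protein measured by Bradford.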

Gox0313 = target: T2, Gox0313 (Gluconobacter oxydans, UniProt Q5FU50); assay: Enzyme activity assay (rate of NAD(P)H decrease at 340 nm), Gox0313; conditions: 10 mM substrate; for Specific Activity: Tab. 6, Gox0313, substrate reduction, cofactor NADH, pH 7.0, 30 °C; for Activity: Table 3, Gox0313, K-phosphate buffer pH 7.0, 0.05 mM NAD(P)H, 30 °C
T2 sequence (Q5FU50 1-343): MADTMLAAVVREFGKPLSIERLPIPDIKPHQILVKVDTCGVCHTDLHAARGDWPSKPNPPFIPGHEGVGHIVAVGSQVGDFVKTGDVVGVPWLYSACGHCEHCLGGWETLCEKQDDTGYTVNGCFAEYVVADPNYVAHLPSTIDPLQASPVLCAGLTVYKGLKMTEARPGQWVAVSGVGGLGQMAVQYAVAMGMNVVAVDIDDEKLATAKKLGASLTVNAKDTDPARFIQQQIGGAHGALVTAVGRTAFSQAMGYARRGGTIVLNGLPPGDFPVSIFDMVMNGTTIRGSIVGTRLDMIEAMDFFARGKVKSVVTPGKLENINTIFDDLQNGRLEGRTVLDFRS
Procedure, shortened: as §2

Gox0644 [2] = target: T1, Gox0644; assay: Regioselectivity of bioconversion, product determined by NMR, Gox0644; conditions: bioconversion with Gox1122 cofactor regeneration, NMR analysis
From the text: Cofactor regeneration: A prerequisite for the production of α-hydroxycarbonyl compounds is the regeneration of the expensive coenzymes and the stability of the protein catalysts. By coupling two coenzyme-dependent enzyme reactions, NADPH can be continuously regenerated. […] For this purpose, we used a combined enzymatic reaction between the NADPH-dependent oxidoreductases that form α-hydroxycarbonyl compounds and the aldehyde dehydrogenase GOX1122 (see Schweiger, P. et al., J. Mol. Microbiol. Biotechnol. 13:147-155 (2007)) that produces the reduced cofactor in the course of acetaldehyde oxidation. […] The biotransformation was performed in a batch process (total volume 2.5 ml 40 mM potassium phosphate buffer pH 7). 30 µg of purified Gox1122 and of NADPH-dependent oxidoreductases and 50 µM NADPH were added. The substrate concentration in the beginning was 20 mM 2,3-pentanedione and 20 mM acetaldehyde. Fresh substrates were added every 60 min (20 mM each).
NMR: The 2.5 ml bioconversion was extracted with two times equal volume of d-chloroform. ^1H and ^13C NMR spectra were recorded on a DPX 300 Spectrometer (300 MHz) and referenced to the CDCl3 internal standard. Chemical samples analyzed with Bruker NMR Suite 2.5 software constructed final product structures.
2.7 Regioselectivity of GOX0644 and GOX1615: Tab. […] Tab. 10: Summary of Regioselectivity
5 ml bioconversions for determining regioselectivity were set up with 2 mg of proteins Gox0644 and Gox1122, 40 mM potassium phosphate buffer, pH 7.0, 50 µM NADPH. Substrates (20 mM 2,3 pentanedione and acetaldehyde) were added every 30 min. The reaction was followed for 3 h to produce quantities between 40-60 mg of product (hydroxy-pentanone).

Product (regioselective reduction) (Gox0644 [2]) | Activity (Gox2107; Table 3, Gox2107, K-phosphate buffer pH 7.0, 0.05 mM NAD(P)H, 30 °C) [U/mg] | SMILES | Specific Activity (Gox0644 [1]) [U/mg] | Activity (Gox0644 [1]) [U/mg] | Specific Activity (Gox2107) [U/mg] | Specific Activity (Gox0313) [U/mg] | Activity (Gox0313) [U/mg] | Product (regioselective reduction) (Gox0644 [2]; listed as 2,3 pentanedione)
 |  | CCC(=O)C(=O)CC [3,4-hexanedione] | 7.3 | 7.3 | < 0.1 | 19.5 | 19.5 | 
2-hydroxy-hexane-3-one |  | CCCC(=O)C(C)=O [2,3-hexanedione] | 50.1 | 50.1 | < 0.1 | 19.6 | 19.6 | 
2-hydroxy-2-phenylacetaldehyde | 35.2 | O=CC(=O)c1ccccc1 [phenylglyoxal] | 66.0 | 66.0 | 35.2 | 0.5 | 0.5 | 
 |  | CC(=O)C=O [methylglyoxal] | 3.4 | 3.4 | < 0.1 | 10.6 | 10.6 | 

SMILES | Product (regioselective reduction) (Gox0644 [2]) | Activity (Gox2107; Table 3, Gox2107, K-phosphate buffer pH 7.0, 0.05 mM NAD(P)H, 30 °C) [U/mg] | Specific Activity (Gox0644 [1]) [U/mg] | Activity (Gox0644 [1]) [U/mg] | Specific Activity (Gox2107) [U/mg] | Specific Activity (Gox0313) [U/mg] | Activity (Gox0313) [U/mg] | Product (regioselective reduction) (Gox0644 [2]; listed as 2,3 pentanedione)
CCC(=O)C(C)=O [2,3-pentanedione] | 2-hydroxy-pentane-3-one |  | 89.3 | 89.3 |  | 35.9 | 35.9 | 2-hydroxy-pentan-3-one
